Data: patent US11571454B2, “Anticancer peptides that synergistically enhance chemotherapeutic potency” (The Penn State Research Foundation, priority 2017, dated 2023)
Marks after values point to notes of the source that are not given here.

Experiments:
[1] = test system: OVCAR-3 cells; assay: TMRE-staining flow cytometry (mitochondrial transmembrane potential); type: cell-based, human; details: 48 hour incubation, varying concentrations
Protocol: (5 μM). Cells were incubated for 30 min. with 200 nM TMRE, washed twice with PBS, and analyzed for fluorescence by flow cytometry on a BD […] (BD Biosciences, Franklin Lakes, N.J.).

[2] = test system: non-cancerous cell lines HUVEC and NL20; assay: MTT cytotoxicity, non-cancerous control cell lines; type: cell-based, human
Protocol: All cells were cultured using standard culture conditions at 37° C., 5% CO2, and 95% humidity. A549 (CCL-185), OVCAR-3 (HTB-161), T24 (HTB-4), and NCI/ADR-RES were cultured in RPMI-1640 supplemented with 10% v/v fetal bovine serum (FBS), 2 mM L-glutamine (L-Gln), 10,000 units penicillin/mL, 10 mg/mL streptomycin, and 25 μg/mL amphotericin B. HUVEC (PCS-100-010) cells were cultured in Vascular Cell Basal Media (PCS-100-030) supplemented with an Endothelial Cell Growth Kit-VEGF (PCS-100-041) and 10 μg/mL gentamycin in culture flasks coated with 0.1% gelatin by incubating at 37° C. for 15 min. NL20 (CRL-2503) cells were cultured in Ham's F12 supplemented with 1.5 g/L sodium bicarbonate, 2.7 g/L glucose, 2.0 mM L-glutamine, 0.1 mM nonessential amino acids, 0.005 mg/ml insulin, 10 ng/ml epidermal growth factor, 0.001 mg/ml transferrin, 500 ng/ml hydrocortisone and 4% fetal bovine serum, as advised by American Type Culture Collection (ATCC).
Viability was calculated by comparing to an untreated control.
All experiments were performed with n>6.

[3] = test system: cleaved caspase 3 in OVCAR-3 cells; assay: Western blot of cleaved caspase 3; type: cell-based, human; details: 1× and 2× IC50; activation at 48 hours
Protocol: For western blots, OVCAR-3 cells were first seeded at 2.5×10^5 cells/well in a 6 well plate and allowed to adhere overnight. Cells were then treated in 5% FBS media with 1×IC50 and 2×IC50, with untreated controls of media alone. Following 2 or 48 hours of treatment, the whole-cell protein lysates were prepared in RIPA buffer (50 mM Tris.NaOH at pH 7.4, 150 mM NaCl, 1% IGEPAL-CA630 [octylphenoxy poly(ethyleneoxy)ethanol], 0.5% sodium deoxycholate, 0.1% SDS, 2 mM EDTA, protease/phosphatase inhibitors) by first scraping the bottom of the well and subsequently briefly sonicated. The lysates were centrifuged to clear cellular debris, separated by 12% SDS-PAGE, and transferred to a 0.2 μm Nitrocellulose Membrane using the Bio-Rad Trans-Blot Turbo transfer machine (Bio-Rad, Hercules, Calif., USA) according to the manufacturer's protocols. The blot was incubated in 5% Immunoanalytical Grade Non-fat Dry Milk for 1 hour, followed by incubation with antibodies against cleaved caspase-3 (1:1000) or actin (1:1000) at 4° C. for 16 hours. The blots were then incubated with 1:2000 dilution in 1×BSA of anti-mouse or anti-rabbit antibodies for 1 hour before washing with TBST three times for 15 min. and developing using Pierce ECL system according to the manufacturer's protocol.

[4] = test system: human lung epithelium (NL20); details: read-out: Healthy (IC50, μM) NL20; 48 hours treatment, MTT
[5] = test system: M. tuberculosis; details: 24 hours, Mycobacteria
[6] = test system: MS S. aureus; details: 24 hours, Gram Positive
[7] = test system: patient-derived tumor cell spheroids (EOC15, 17, 19); assay: Ex vivo 3D tumor spheroid culture; type: cell-based, human; details: 2 μM cisplatin or 4 μM MAD1 alone, 48 hours
Protocol: EOC patient-derived cells were cultured in 1:1 MCDB-105: M199 supplemented with 10% FBS and 1% penicillin-streptomycin. EOC patient-derived cells were provided by Dr. Katherine M. Aird under an Institutional Review Board-approved protocol. EOC patient-derived cells were collected from patient ascites fluid after paracentesis procedures. Cells were routinely tested for mycoplasma as previously described. […] Spheroid length and width was calculated using ImageJ. Spheroid volume was calculated using the following equation […] Statistical Methods […] IC50 values are reported as mean values±standard deviation. […] Pore size frequency distribution was completed by ImageJ FIJI on 4 independent cells and n=30 pores from SEM images. […] Individual UV-Vis and CD spectra, as well as fluorescent confocal and TEM micrographs, shown are representative plots from three individual experiments. CD data is with a variance in ellipticity of 0.2 millidegrees at each wavelength. Relative fluorescence data calculated from fluorescent confocal images represents the average of 10 independent measurements±standard deviation. For spheroid volume analysis, a Kruskal-Wallis test and Dunn's multiple comparisons test was performed using GraphPad Prism 8.

[8] = test system: OVCAR-3 cells; details: read-out: IC50, nuclei-counting assay; OVCAR-3, Hoechst nuclei counting
[9] = test system: P. aeruginosa; details: 24 hours, Gram Negative
[10] = test system: OVCAR-3 cells; assay: Annexin V-PI flow cytometry apoptosis assay; type: cell-based, human; details: IC50 of MAD1 (14 μM)
Protocol: OVCAR-3 cells were first seeded at 2×10^5 cells/well in 12 well plates. The cells were then allowed to adhere overnight. […] Wells were left in 5% serum media for negative and compensation controls. Cells were then trypsinized, washed in cold PBS, and centrifuged at 3,000 rpm at 15° C. for 5 min. After the supernatant was aspirated, the cells were resuspended in 100 μL of Annexin V Binding Buffer. In the dark, 5 μL of FITC Annexin V and 10 μL of Propidium Iodine solution were added to the cells, with compensation controls of a negative control with no staining, a FITC Annexin V only control, and a PI only control. The cells were then vortexed gently to combine and allowed to incubate for 15 min. at room temperature. 400 μL of Annexin V Binding Buffer was then added to each tube and stored on ice prior to analyzing by flow cytometry.
Flow cytometry was conducted on a LSRFortessa Flow Cytometer (BD Biosciences, Franklin Lakes, N.J.) using 488 nm and 532 nm lasers for FITC and PE-Texas Red signals to detect Annexin V and PI, respectively. Compensation was completed for 10,000 cells, and experiments were conducted over 20,000 cells.

[11] = test system: human umbilical vein endothelial cells (HUVEC); details: read-out: Healthy (IC50, μM) HUVEC; 48 hours treatment, MTT

H-KRWHWWRRHWVVW-NH2 [MAD1]
mitochondrial integrity (TMRE fluorescence) [1]: generally unchanged
toxicity towards non-cancerous control cell lines [2]: well tolerated
cleaved caspase 3 (western blot) [3]: presence of cleaved caspase 3
IC50 [4]: 76.9 µM
MIC (μM) M. tuberculosis [5]: 2.5 µM
MIC (μM) MS S. aureus [6]: >80^a μM
spheroid size, single agent [7]: minimal reduction in size
IC50 [8]: 3.3 µM
MIC (μM) P. aeruginosa [9]: 50^a μM
cell necrosis (% of population) ([10]; 2 hours): 16%
late apoptotic phenotype (% of cells) ([10]; 2 hours): 65%
early apoptotic stage (% of cells) ([10]; 24 hours): 19%
late apoptotic stage (% of cells) ([10]; 24 hours): 77%
IC50 [11]: > 100 µM
